The test system of one data set is dipeptidyl peptidase IV. The data set can be described thus: DPP-IV assay (Example 5), HPLC/ES-MS. It counts as in vitro ADME. Conditions: 11 milliunits DPP-IV, 50 mM triethanolamine buffer pH 7.8, 37° C., HPLC and ES-MS. As for the experimental part: J. Bailey, F. P. M. O'Harte, and P. R. Flatt. […] Biological Chemistry. 385, pp 169-177.
Briefly, 100-200 microgams of each peptide was dissolved in 0.5 ml of 50 mM triethanolamine buffer, pH 7.8. To this was added a 10 microlitre solution of 11 milliunits DPP-IV (Sigma) and the solutions incubated at 37° C. for up to 42 hours. […] The incubations were terminated by addition of 5 microlitres TFA to each tube and 50 microlitre of each were injected onto a reversed phase 4.6×250 mm C18 HPLC column, eluting a gradient of 20%-45% acetonitrile in 0.1% TFA/water over 25 minutes. […] After 42 hours, the 2 analogues slowly degraded to a product that gave a mass spectrum consistent with the mass of the 9-37 sequence, indicating longer term instability of the urea bond. This represented as much as 15% of the product by HPLC. This degradation appeared to be non-DPP-IV related, since samples without enzyme gave the same profile.

For another data set, the target named is DPP-IV (Homo sapiens, UniProt P27487). The data set can be described thus: Dipeptidyl Peptidase IV (DPP-IV) digestion, stability by RP-HPLC (Example 10). Format: in vitro ADME. Conditions: DPP-IV (isolated peptidase), PBS/TEthA, pH 7.5, 37°, DPP-IV, read-out: percentage of analogue remaining.
DPP-IV, sequence (P27487 whole entry, species assumed): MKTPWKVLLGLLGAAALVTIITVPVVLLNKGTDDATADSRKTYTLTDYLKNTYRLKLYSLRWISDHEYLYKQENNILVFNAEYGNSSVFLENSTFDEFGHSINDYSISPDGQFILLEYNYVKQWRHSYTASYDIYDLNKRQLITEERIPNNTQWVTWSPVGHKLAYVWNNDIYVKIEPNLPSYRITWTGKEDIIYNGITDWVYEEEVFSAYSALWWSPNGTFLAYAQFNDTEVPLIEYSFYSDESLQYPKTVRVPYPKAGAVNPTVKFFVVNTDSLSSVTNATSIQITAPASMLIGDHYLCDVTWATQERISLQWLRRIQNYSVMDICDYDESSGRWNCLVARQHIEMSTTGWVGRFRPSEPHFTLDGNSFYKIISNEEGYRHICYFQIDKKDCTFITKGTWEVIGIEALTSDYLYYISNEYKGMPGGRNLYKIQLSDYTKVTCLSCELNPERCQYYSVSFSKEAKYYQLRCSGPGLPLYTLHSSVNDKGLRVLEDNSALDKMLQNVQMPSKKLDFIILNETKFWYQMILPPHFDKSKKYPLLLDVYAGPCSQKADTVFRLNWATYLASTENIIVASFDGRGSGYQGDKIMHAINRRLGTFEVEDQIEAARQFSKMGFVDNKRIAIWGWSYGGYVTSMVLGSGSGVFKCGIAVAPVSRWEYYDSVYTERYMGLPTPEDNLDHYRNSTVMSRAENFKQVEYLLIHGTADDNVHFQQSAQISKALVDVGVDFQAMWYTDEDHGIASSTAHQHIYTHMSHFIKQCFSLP
The nature of data set [1]: Control study: chemical stability in PBS/triethanolamine without DPP-IV. It counts as physicochemical. Conditions: PBS/TEthA, pH 7.5, 37°, no DPP-IV; for remaining at 22 h / remaining at 47 h: PBS/triethanolamine solution without DPP-IV, read-out: percentage of peptide remaining. As for the experimental part:
In the control study, peptides were incubated with PBS/triethanolamine solution in the absence of DPP-IV to measure their chemical stability.

For a further data set, the system named is beta TC-6 cell line. The data set can be described thus: Insulin release assay (insulin ELISA). Format: cell-based, mouse. To be noted: for Insulin release: 5 mM glucose, 30 minutes, Beta-TC-6 cells, cells only 1.37-3.67; for Activity of 3 μM of each peptide as percentage of insulin release by cells only / Activity of 15 μM of each peptide as percentage of insulin release by cells only: cells alone=100%. The procedure: This was derived from a pancreatic tumor (insulinoma) arising in a transgenic mouse.
Beta-TC-6 cells were purchased from A.T.C.C. (A.T.C.C. number CCL-11506; Manassas, Va., U.S.A.). Beta-TC-6 cells were cultured in Dulbecco's Modified Eagle's medium supplemented with 15% (v/v) heat-inactivated foetal bovine serum, 1% (v/v) glutamine, 0.45% (w/v) glucose and 0.15% (w/v) sodium bicarbonate at 37° C. in a humidified 5% CO2 atmosphere. Beta-TC-6 cells form islands and the monolayer never becomes confluent; cells were passaged at 70% confluence (7 days from seeding) at a subcultivation ratio of 1:4. The monolayer was disrupted from the surface of the culture flask with 0.25% (w/v) Trypsin-0.53 mM EDTA.
Beta-TC-6 cells were cultured in 12 well plates for between 4-8 days prior to use. Cells were cultured in Krebs-Ringer (10 mM Hepes, pH 7.4, 136 mM NaCl, 4.7 mM KCl and 1.25 mM MgSO4) supplemented with 5 mM glucose for 1 hr at 37° C. in a humidified 5% CO2 atmosphere. This medium was removed, cells washed with Krebs-Ringer. Beta-TC-6 cells were then cultured in 1 ml per well of Krebs-Ringer supplemented with 5 mM glucose and 0, 0.12, 0.6, 3 and 15 μM of peptide in duplicate for 30 minutes at 37° C. in a humidified 5% CO2 atmosphere. Medium was removed, diluted 1:5, and insulin concentration determined using an insulin ELISA kit (Mercodia, Uppsala, Sweden) according to the manufacturer's protocol. Beta-TC-6 cells were washed three times with ice-cold PBS and extracted into 0.5 ml lysis buffer (62.5 mM Tris, pH 7.5, and 1%, v/v, SDS) per well. Protein concentration was determined by Lowry assay. […] Only single-sided p values are shown.

For data set [2], the target named is L-His-L-Ala-NH-NH-CH2-C(O)-Glu9-37 (SP007) (Homo sapiens).
The target in data set [3] is L-His-L-NH-CH(CH3)-CH2-NH-O-CH2-C(O)-Glu9-37 (SP005) (Homo sapiens).
In data set [4] the target is L-His-NH-NH-CH(CH3)-C(O)-Glu9-37 (SP008) (Homo sapiens).
Data set [5] addresses L-His-NH-NH-CH2-C(O)-Glu9-37 (SP006) (Homo sapiens).
Data set [6] addresses Native GLP-1 7-37 (Homo sapiens).
The target of the next data set is GLP-1 receptor (mouse) (UniProt O35659).

No end group written: not given here.

Turning to HAEGTFTSDVSSYLEG [GLP-1 7-22], the “state of peptide after 18 hr incubation with DPP-IV” value with dipeptidyl peptidase IV is reported as “completely cleaved”.
For `CC[C@H](C)[C@H](NC(=O)[C@H](Cc1ccccc1)NC(=O)[C@H](CCC(=O)O)NC(=O)[C@H](CCCCN)NC(=O)[C@H](C)NC(=O)[C@H](C)NC(=O)[C@H](CCC(N)=O)NC(=O)CNC(=O)[C@H](CCC(=O)O)NC(=O)[C@H](CC(C)C)NC(=O)[C@H](Cc1ccc(O)cc1)NC(=O)[C@H](CO)NC(=O)[C@H](CO)NC(=O)[C@@H](NC(=O)[C@H](CC(=O)O)NC(=O)[C@H](CO)NC(=O)[C@@H](NC(=O)[C@H](Cc1ccccc1)NC(=O)[C@@H](NC(=O)CNC(=O)[C@H](CCC(=O)O)NC(=O)CONC[C@H](C)NC(=O)[C@@H](N)Cc1c[nH]cn1)[C@@H](C)O)[C@@H](C)O)C(C)C)C(=O)N[C@@H](C)C(=O)N[C@@H](Cc1c[nH]c2ccccc12)C(=O)N[C@@H](CC(C)C)C(=O)N[C@H](C(=O)N[C@@H](CCCCN)C(=O)NCC(=O)N[C@@H](CCCNC(=N)N)C(=O)NCC(=O)O)C(C)C` [SP005, L-His-L-NH—CH(CH3)—CH2—NH—O—CH2—C(O)-Glu9-37], on DPP-IV, the fraction remaining (as a rule, what is left of the initial amount, in per cent) at 22 h is 95% and the fraction remaining at 47 h was 93%. For the same molecule, the amount remaining at 22 h in [1] was determined as 95%. For the same molecule, the fraction remaining at 47 h in data set [1] (47 hr) came to 89%. Besides, in the data set with beta TC-6 cell line (3 μM peptide), the Insulin release is reported as 2.25 ng/min/mg and the “Activity of 3 μM of each peptide as percentage of insulin release by cells only” value was 171 ± 53%. In the data set with beta TC-6 cell line (15 μM peptide), the Insulin release stood at 5.26 ng/min/mg and the “Activity of 15 μM of each peptide as percentage of insulin release by cells only” value is listed as 358 ± 128%.
On to “Glu Gly Thr Phe Thr Ser Asp Val Ser Ser Tyr Leu Glu Gly Gln Ala Ala Lys Glu Phe Ile Ala Trp Leu Val Lys Gly Arg Gly (EGTFTSDVSSYLEGQAAKEFIAWLVKGRG; listed as Homo sapiens) [Native GLP-1 9-37, reference compound]”, for which, in the data set on beta TC-6 cell line (15 μM peptide), the Insulin release is given as 3.25 ng/min/mg and the “Activity of 15 μM of each peptide as percentage of insulin release by cells only” value was 123 ± 17%.
In the case of `CC[C@H](C)[C@H](NC(=O)[C@H](Cc1ccccc1)NC(=O)[C@H](CCC(=O)O)NC(=O)[C@H](CCCCN)NC(=O)[C@H](C)NC(=O)[C@H](C)NC(=O)[C@H](CCC(N)=O)NC(=O)CNC(=O)[C@H](CCC(=O)O)NC(=O)[C@H](CC(C)C)NC(=O)[C@H](Cc1ccc(O)cc1)NC(=O)[C@H](CO)NC(=O)[C@H](CO)NC(=O)[C@@H](NC(=O)[C@H](CC(=O)O)NC(=O)[C@H](CO)NC(=O)[C@@H](NC(=O)[C@H](Cc1ccccc1)NC(=O)[C@@H](NC(=O)CNC(=O)[C@H](CCC(=O)O)NC(=O)[C@H](C)NNC(=O)[C@@H](N)Cc1c[nH]cn1)[C@@H](C)O)[C@@H](C)O)C(C)C)C(=O)N[C@@H](C)C(=O)N[C@@H](Cc1c[nH]c2ccccc12)C(=O)N[C@@H](CC(C)C)C(=O)N[C@H](C(=O)N[C@@H](CCCCN)C(=O)NCC(=O)N[C@@H](CCCNC(=N)N)C(=O)NCC(=O)O)C(C)C` [SP008, L-His-NH—NH—CH(CH3)—C(O)-Glu9-37], the fraction remaining at 22 h amounted to 95% at DPP-IV and 91% in [1]. In addition, the values for the amount remaining at 47 h (on DPP-IV; in data set [1] (47 hr)) were 93% and 77%, respectively. Also, the Insulin release in the data set on beta TC-6 cell line (3 μM peptide) is 4.35 ng/min/mg; with beta TC-6 cell line (15 μM peptide), 6.20 ng/min/mg. Moreover, the “Activity of 3 μM of each peptide as percentage of insulin release by cells only” value with beta TC-6 cell line (3 μM peptide) is given as 112 ± 44%. Besides, in the data set on beta TC-6 cell line (15 μM peptide), the “Activity of 15 μM of each peptide as percentage of insulin release by cells only” value stood at 170 ± 48%.
For the molecule “dipeptidyl peptidase IV (DPP-IV) (Sigma) (enzyme)”, the percentage of each analogue remaining after incubation with DPP-IV (RP-HPLC), 22 hr in data set [2] and in [6] was less than 5 % remaining throughout. The percentage of each analogue remaining after incubation with DPP-IV (RP-HPLC), 47 hr in data set [3] came out at 93 % remaining; in data set [4], 93 % remaining; in data set [5], 87 % remaining.
For “L-His-L-Ala-NH-NH-CH2-C(O)-Glu9-37 (SP007) (peptide)”, the Activity of 15 µM of each peptide as percentage of insulin release by cells only (beta TC-6 cells) (% of insulin release by cells only) with GLP-1 receptor (mouse) was determined as 235.
“L-His-NH-NH-CH2-C(O)-Glu9-37 (SP006) (peptide)”: the Activity of 15 µM of each peptide as percentage of insulin release by cells only (beta TC-6 cells) (% of insulin release by cells only) with GLP-1 receptor (mouse) was 330.
Still for that read-out and setting: in the case of “GLP-1 NH2-D-His-D-Ala-Urea-9-37 (SP002) (peptide)” it was 254.
For the molecule “L-His-NH-NH-CH(CH3)-C(O)-Glu9-37 (SP008) (peptide)”, the Activity of 15 µM of each peptide as percentage of insulin release by cells only (beta TC-6 cells) (% of insulin release by cells only) with GLP-1 receptor (mouse) worked out at 170.
As to `CC[C@H](C)[C@H](NC(=O)[C@H](Cc1ccccc1)NC(=O)[C@H](CCC(=O)O)NC(=O)[C@H](CCCCN)NC(=O)[C@H](C)NC(=O)[C@H](C)NC(=O)[C@H](CCC(N)=O)NC(=O)CNC(=O)[C@H](CCC(=O)O)NC(=O)[C@H](CC(C)C)NC(=O)[C@H](Cc1ccc(O)cc1)NC(=O)[C@H](CO)NC(=O)[C@H](CO)NC(=O)[C@@H](NC(=O)[C@H](CC(=O)O)NC(=O)[C@H](CO)NC(=O)[C@@H](NC(=O)[C@H](Cc1ccccc1)NC(=O)[C@@H](NC(=O)CNC(=O)[C@H](CCC(=O)O)NC(=O)CNNC(=O)[C@@H](N)Cc1c[nH]cn1)[C@@H](C)O)[C@@H](C)O)C(C)C)C(=O)N[C@@H](C)C(=O)N[C@@H](Cc1c[nH]c2ccccc12)C(=O)N[C@@H](CC(C)C)C(=O)N[C@H](C(=O)N[C@@H](CCCCN)C(=O)NCC(=O)N[C@@H](CCCNC(=N)N)C(=O)NCC(=O)O)C(C)C` [SP006, L-His-NH-NH-CH2-C(O)-Glu9-37], on DPP-IV, the share remaining at 22 h amounted to 88% and the amount remaining at 47 h worked out at 87%. Moreover, the “percentage of peptide remaining” value in [1] (47 hr) was determined as 88%. Besides, the fraction remaining at 22 h in data set [1] worked out at 88%. For the same molecule, in the data set on beta TC-6 cell line (3 μM peptide), the Insulin release was 3.86 ng/min/mg and the “Activity of 3 μM of each peptide as percentage of insulin release by cells only” value is listed as 154 ± 25%. Further, in the data set with beta TC-6 cell line (15 μM peptide), the Insulin release came to 8.88 ng/min/mg and the “Activity of 15 μM of each peptide as percentage of insulin release by cells only” value is given as 330 ± 89%.
In the data set with GLP-1 receptor (mouse), “L-His-L-NH-CH(CH3)-CH2-NH-O-CH2-C(O)-Glu9-37 (SP005) (peptide)” yielded an Activity of 15 µM of each peptide as percentage of insulin release by cells only (beta TC-6 cells) (% of insulin release by cells only) of 358.
For the molecule “GLP-1 NH2-L-His-L-Ala-urea-9-37 (SP001) (peptide)”, the Activity of 15 µM of each peptide as percentage of insulin release by cells only (beta TC-6 cells) (% of insulin release by cells only) with GLP-1 receptor (mouse) worked out at 100.

For the origin of these results see patent US20100286024A1, “Insulinotropic compounds and uses thereof” (priority 2005, published 2010).
